The text below walks through data of US12552772B2, “2-pyrazole anilines and related analogs for inhibiting YAP/TAZ-TEAD” (KATHOLIEKE UNIVERSITEIT LEUVEN, priority 2021, dated 2026).

Test [1] relates to YAP/TAZ-TEAD transcription. The test can be described thus: Reporter gene assay for measuring the inhibition of YAP/TAZ-TEAD transcription (TEAD-responsive element luciferase reporter in Hek293T cells). In kind it is cell-based. As to conditions: Homo sapiens, HEK-293T, 24 hours incubation. An outline of the steps:
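Hek293T cells transiently transfected with a TEAD-responsive element luciferase reporter were plated onto compounds and incubated 24 h at 37 °C/5% CO2. SteadyLite luminescence gave percent inhibition, normalised to vehicle (0%) and positive control inhibitor (100%); EC50 derived.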
For orientation: A reporter such as luciferase makes a cellular process visible.

A further test deals with NCI-H226. The test can be described thus: Mesothelioma cell line proliferation assay (ATPlite), NCI-H226. Type of test: cell-based. The conditions noted are these: Homo sapiens, 144 h; NCI-H226 cells, 6 days, ATPlite cell viability. The method in brief: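 Mesothelioma cells seeded at 1500 cells/well in RPMI 1640 with 10% FBS, incubated overnight, then treated with compound dose-response in DMSO for 6 days at 37° C, 5% CO2. Viability read by ATPlite luminescence; percent inhibition used to derive EC50.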
For orientation: ATP-based viability assays read luminescence as a measure of living cells.

The subject of the next test is H2452. The test can be described thus: Mesothelioma cell line proliferation assay, H2452. Type of test: cell-based. The conditions noted are these: Homo sapiens, NCI-H2452; H2452 cells.
A further test deals with YAP. The conditions noted are these: mouse models of YAP-driven tumorigenesis; cited from earlier work.
Test [2] deals with NF2 mutant mesothelioma cell lines. As to conditions: NF2 mutant mesothelioma cell lines (but not WT mesothelioma); cited from earlier work.

One may read the EC50 as the concentration giving half of the maximal effect.

Take `CNS(=O)(=O)CCNc1ccc(-c2ccccc2)cc1-c1ccn(Cc2ccccc2)n1` [compound 102, 2-((3-(1-benzyl-1H-pyrazol-3-yl)-[1,1′-biphenyl]-4-yl)amino)-N-methylethane-1-sulfonamide]: the EC50 was under 1 µM in test [1], over 10 µM with NCI-H226 and over 10 µM in the test with H2452.

`CNS(=O)(=O)CCNc1ccc(-c2ccc(F)cc2)cc1-c1ccn(C)n1` [compound 117, 2-((4′-fluoro-3-(1-methyl-1H-pyrazol-3-yl)-[1,1′-biphenyl]-4-yl)amino)-N-methylethane-1-sulfonamide]: the EC50 in test [1] was under 1 µM; in the test on NCI-H226 it was over 10 µM; in the test on H2452, over 10 µM.

Consider `CNS(=O)(=O)CCNc1ccc(-c2ccc(C(F)(F)F)cc2)cc1-c1ccn(C)n1` [compound 118, N-methyl-2-((3-(1-methyl-1H-pyrazol-3-yl)-4′-(trifluoromethyl)-[1,1′-biphenyl]-4-yl)amino)ethane-1-sulfonamide], for which the EC50 is under 1 µM in test [1], 1 to 10 µM with NCI-H226 and over 10 µM in the test on H2452.

Consider `CNS(=O)(=O)CCNc1ccc(-c2cccc(F)c2)cc1-c1ccn(C)n1` [compound 119, 2-((3′-fluoro-3-(1-methyl-1H-pyrazol-3-yl)-[1,1′-biphenyl]-4-yl)amino)-N-methylethane-1-sulfonamide], for which the figures for the EC50 (in test [1]; in the test on NCI-H226; in the test on H2452) were under 1 µM, over 10 µM and over 10 µM, respectively.

As for `CNS(=O)(=O)CCNc1ccc(-c2ccc(F)c(F)c2)cc1-c1ccn(C)n1` [compound 124], the EC50 in test [1] was under 1 µM; in the test on NCI-H226, 1 to 10 µM; in the test with H2452, over 10 µM.

Turning to verteporfin, in the test with YAP, the “suppression of the oncogenic activity of YAP” value was “significantly suppressed the oncogenic activity of YAP”. Also, in test [2], the “sensitivity of YAP-TEAD transcription” value is listed as “sensitive” and the sensitivity of viability entry is “sensitive”.
